According to ChEMBL document CHEMBL3351632, “Design and synthesis of 4-heteroaryl 1,2,3,4-tetrahydroisoquinolines as triple reuptake inhibitors” (ACS Med Chem Lett, 2014):

Columns and labels:
[1] = Clearance in Sprague-Dawley rat at 10 mg/kg, po and 1 mg/kg, iv; format: ADME, organism-based; conditions: in vivo
Liver microsome [2] = assay: Drug metabolism in human liver microsomes assessed as formation of (+)-2-(4-(benzo[b]thiophen-5-yl)-2-methyl-1,2,3,4-tetrahydroisoquinolin-7-ylamino)ethanol; format: ADME
[3] = Oral bioavailability in Sprague-Dawley rat at 10 mg/kg; format: ADME, organism-based; conditions: in vivo
[4] = Oral bioavailability at steady state in cynomolgus monkey at 2 mg/kg; format: ADME, organism-based, Macaca fascicularis; conditions: in vivo
[5] = Ratio of drug uptake in brain to plasma of Sprague-Dawley rat at 10 mg/kg, po measured after 1 hr; format: ADME, organism-based; design: dose 10 mg/kg, route oral; conditions: read-out: BPR
[6] = Clearance in cynomolgus monkey at 2 mg/kg, po and 0.5 mg/kg, iv; format: ADME, organism-based, Macaca fascicularis; conditions: in vivo
Rattus norvegicus = species on record: Rattus norvegicus; assay: Drug metabolism in rat assessed as formation of (+)-2-(4-(benzo[b]thiophen-5-yl)-2-methyl-1,2,3,4-tetrahydroisoquinolin-7-ylamino)ethanol; format: ADME, organism-based; conditions: in vivo
Liver microsome [7] = assay: Drug metabolism in rat liver microsomes assessed as formation of (+)-2-(4-(benzo[b]thiophen-5-yl)-2-methyl-1,2,3,4-tetrahydroisoquinolin-7-ylamino)ethanol; format: ADME
[8] = Volume of distribution at steady state in Sprague-Dawley rat at 10 mg/kg, po and 1 mg/kg, iv; format: ADME, organism-based; conditions: in vivo, read-out: Vdss
[9] = Volume of distribution at steady state in cynomolgus monkey at 2 mg/kg, po and 0.5 mg/kg, iv; format: ADME, organism-based, Macaca fascicularis; conditions: in vivo, read-out: Vdss

clearance [1]: 47 mL/min/kg
Drug metabolism (Liver microsome [2]): metabolite_detected
bioavailability [3]: 81%
bioavailability [4]: 39%
Kp at 1 h [5]: 3
clearance [6]: 27 mL/min/kg
Drug metabolism (Rattus norvegicus): metabolite_notdetected
Drug metabolism (Liver microsome [7]): metabolite_detected
Vd [8]: 14 L/kg
Vd [9]: 16 L/kg
Compound: CN1Cc2cc(N3CCOCC3)ccc2[C@@H](c2ccc3sccc3c2)C1
